According to patent US8168597B2, “Method for treating cystic fibrosis” (Inspire Pharmaceuticals, Inc., priority 2008, dated 2012):

B1: Pulmozyme: CF medication taken as usual standard of care (alfa dornase) (protein, UniProt P24855 23-282, looked up)
Deoxyribonuclease-1: LKIAAFNIQTFGETKMSNATLVSYIVQILSRYDIALVQEVRDSHLTAVGKLLDNLNQDAPDTYHYVVSEPLGRNSYKERYLFVYRPDQVSAVDSYYYDDGCEPCGNDTFNREPAIVRFFSRFTEVREFAIVPLHAAPGDAVAEIDALYDVYLDVQEKWGLEDVMLMGDFNAGCSYVRPSQWSSIRLWTSPTFQWLIPDSADTTATPTHCAYDRIVVAGMLLRGAVVPDSALPFNFQAAYGLSDQLAQAISDHYPVEVMLK

System: patients with mild CF lung disease
Assay: Multi-center, double-blind, randomized efficacy and safety study; change in lung function (FEV1) from baseline to Week 24
Format: in vivo, human
Conditions: for FEV1 Change from baseline in Liters, Mean (Table 2): subgroups that did not take pulmozyme or inhaled antibiotics; for FEV1 Change from baseline in Liters, Mean (Table 3): pulmozyme/macrolide subgroups
Procedure: This is a multi-center, double-blind, randomized, efficacy and safety study of denufosol in patients with mild CF lung disease. Approximately 350 patients were enrolled and randomly assigned to receive one of two treatments, 60 mg denufosol TID or placebo TID, with approximately 175 patients assigned to each treatment group. Patients were administered study drug (denufosol) or placebo using the PARI LC STAR™ nebulizer and PART PRONEB Ultra™ compressor. At the end of the 24-week double-blind, placebo-controlled treatment period, placebo patients received 60 mg denufosol for a 24-week safety extension period. All patients on denufosol during the first 24 weeks continued to receive denufosol during the 24-week safety extension. Upon completion of study participation or discontinuation from study treatment, all patients were scheduled for a 1-week follow-up visit.
In general, CF patients took many medications as their usual standard of care. This study was designed to randomly assign patients either to denufosol or placebo on top of their usual standard of care. […] Patients were instructed whenever possible to use these medications consistently throughout the study.
All patients were instructed to inhale the study drug using normal tidal breathing via the PARI LC STAR™ reusable nebulizer and the PARI PRONEB™ Ultra compressor. A dose was considered complete after 15 minutes of inhalation or when the nebulizer sputters. Study drug was taken TID at the same time each day.
Primary efficacy endpoint was change in lung function, as measured by FEV1 (L), from baseline to Week 24 end point. Missing Week 24 data for patients who withdrew prior to Week 24 were imputed from the last available observation carried forward. Secondary efficacy endpoints included the following: time to first pulmonary exacerbation during the 24-week placebo-controlled treatment period; incidence of pulmonary exacerbations during the 24-week placebo-controlled treatment period; number of pulmonary exacerbations/time at risk (incidence density) during the 24-week placebo-controlled treatment period; change in lung function, as measured by FEV1 (L) from baseline to Weeks 4 and 12, and FVC (L) and FEF25%-75% (L/sec) from baseline to Weeks 4, 12, 24, and the end point. Other secondary efficacy endpoints include incidence of IV antibiotic use during the 24-week placebo-controlled treatment period; number of days of IV antibiotic use during the 24-week placebo-controlled treatment period; incidence of new use of antipseudomonal antibiotics during the 24-week placebo-controlled treatment period; incidence of hospitalizations/ER visits for a respiratory-related complaint during the 24-week placebo-controlled treatment period; number of days spent in the hospital for a respiratory-related complaint during the 24-week placebo-controlled treatment period; changes from baseline to Weeks 12 and 24 in Health-related Quality of Life as measured by the Cystic Fibrosis Questionnare and the Feeling Thermometer; and changes in utility assessment from baseline to Weeks 12 and 24 as measured by the Health Utilities Index; number of CF-related days lost from work or school during the 24-week placebo-controlled treatment period; and responses at Week 24 to the Patient Questionnaire.

| Molecule | FEV1 Change from baseline in Liters, Mean (Table 2) (baseline to Week 24) [L] | adjusted means for change in lung function, as measured by FEV1, from baseline to Week 24 (macrolide users (97% azithromycin), 60 mg denufosol TID by inhalation, p-value 0.047 vs placebo group) [L] | improvement in FEV1 change in the macrolide group when treated with denufosol (vs placebo group) (macrolide users, baseline to Week 24) | FEV1 Change from baseline in Liters, Mean (Table 3) (baseline to Week 24) [L] |
| --- | --- | --- | --- | --- |
| Nc1ccn([C@H]2C[C@H](O)[C@@H](COP(=O)(O)OP(=O)(O)OP(=O)(O)OP(=O)(O)OC[C@H]3O[C@@H](n4ccc(=O)[nH]c4=O)[C@H](O)[C@@H]3O)O2)c(=O)n1 [Denufosol, P^1-(uridine 5′-)-P^4-(2′-deoxycytidine 5′-) tetraphosphate] | 0.0494 | 0.0288 | +0.0745 L |  |
| CC[C@H]1OC(=O)[C@H](C)[C@@H](O[C@H]2C[C@@](C)(OC)[C@@H](O)[C@H](C)O2)[C@H](C)[C@@H](O[C@@H]2O[C@H](C)C[C@H](N(C)C)[C@H]2O)[C@](C)(O)C[C@@H](C)CN(C)[C@H](C)[C@@H](O)[C@]1(C)O [Macrolide (Azithromycin), azithromycin, reference compound] | 0.0430 |  |  | 0.0430 |
| B1 |  |  |  | 0.0659 |
